The source made the active and inactive calls.
Key:
[1] = biological target: Adenosylmethionine-8-amino-7-oxononanoate aminotransferase (Mycobacterium tuberculosis, UniProt P9WQ81); assay: Mycobacterium tuberculosis BioA enzyme inhibitor Measured in Biochemical System Using Plate Reader - 2163-02_Inhibitor_Dose_CherryPick_Activity.; type: functional, Mycobacterium tuberculosis UT205
[2] = NIH3T3 cell viability loss – ATP luminescence, mouse fibroblasts, counter-screen, dose response (AID 2010); type: functional, cell-based;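 also: cells exposed to compound for about 90 hours before reading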
[3] = biological target: Melanocortin receptor 4 (Homo sapiens, UniProt P32245); assay: inhibitors of MC4R cAMP signaling – cell-based, TR-FRET, biased antagonists, dose response (AID 602298); type: functional;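 also: antagonist potency against agonist-stimulated cAMP production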
Chain of Melanocortin receptor 4 (P32245 whole entry): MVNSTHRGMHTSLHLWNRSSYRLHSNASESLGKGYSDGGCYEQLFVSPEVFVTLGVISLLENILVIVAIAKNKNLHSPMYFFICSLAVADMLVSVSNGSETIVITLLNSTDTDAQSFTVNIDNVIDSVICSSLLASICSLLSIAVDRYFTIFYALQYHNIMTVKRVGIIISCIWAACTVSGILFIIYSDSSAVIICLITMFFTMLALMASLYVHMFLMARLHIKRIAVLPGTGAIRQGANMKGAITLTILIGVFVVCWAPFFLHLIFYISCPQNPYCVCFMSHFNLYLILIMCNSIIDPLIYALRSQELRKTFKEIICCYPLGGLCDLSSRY

[4] = cAMP pathway inhibition in counterscreen cell line – TR-FRET cAMP detection, counter-screen for MC4R biased antagonist project, dose response (AID 602305); type: functional, cell-based;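 also: U2OS cells stimulated with forskolin near its EC80 as the cAMP inducer; potency is for inhibition of forskolin-stimulated cAMP signaling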
[5] = Trypanosoma cruzi growth suppression in host cells – NIH3T3 host cells, beta-gal luminescence, confirmation (AID 2044); type: functional, cell-based;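 also: intracellular parasites grown in NIH/3T3 mouse fibroblasts as host cells; luminescent beta-galactosidase reporter signal from transgenic T. cruzi replicating inside host cells; inhibitors lower the luminescence signal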
[6] = biological target: Dual specificity protein kinase CLK1 (Homo sapiens, UniProt P49759); assay: inhibition of human CLK1 activity – biochemical, cherry-picked samples, selectivity assay for Dyrk1A inhibitor project, dose response (AID 588811)
Chain of Dual specificity protein kinase CLK1 (P49759 whole entry): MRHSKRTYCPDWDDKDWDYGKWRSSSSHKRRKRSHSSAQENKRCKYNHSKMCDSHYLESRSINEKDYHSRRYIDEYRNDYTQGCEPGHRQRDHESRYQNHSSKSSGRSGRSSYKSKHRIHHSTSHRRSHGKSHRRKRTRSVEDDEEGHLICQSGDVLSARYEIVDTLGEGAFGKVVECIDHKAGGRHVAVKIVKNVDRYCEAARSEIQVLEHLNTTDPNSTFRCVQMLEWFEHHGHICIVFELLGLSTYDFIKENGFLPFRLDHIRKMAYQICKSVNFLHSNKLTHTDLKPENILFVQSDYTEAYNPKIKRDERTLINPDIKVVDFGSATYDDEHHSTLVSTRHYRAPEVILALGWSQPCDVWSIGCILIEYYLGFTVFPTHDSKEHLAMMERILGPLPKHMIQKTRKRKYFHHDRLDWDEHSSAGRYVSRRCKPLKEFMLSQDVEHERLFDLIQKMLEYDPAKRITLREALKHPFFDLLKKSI

[7] = biological target: Dual specificity tyrosine-phosphorylation-regulated kinase 1A (Rattus norvegicus, UniProt Q63470); type: biochemical, Homo sapiens
[8] = nonselective StAR promoter luciferase inhibitors – cell-based, luminescence, luciferase reporter, counter-screen for LRH-1 inverse agonist project, dose response (AID 651969); type: functional
[9] = biological target: Steroidogenic factor 1 (Homo sapiens, UniProt Q13285); assay: Counterscreen for inverse agonists of the liver receptor homolog-1 (LRH-1; NR5A2): Luminescence-based cell-based high throughput dose response assay to identify inverse agonists of the Steroidogenic Factor 1 Nuclear Receptor (SF1; NR5A1).; type: functional
Chain of Steroidogenic factor 1 (Q13285 whole entry): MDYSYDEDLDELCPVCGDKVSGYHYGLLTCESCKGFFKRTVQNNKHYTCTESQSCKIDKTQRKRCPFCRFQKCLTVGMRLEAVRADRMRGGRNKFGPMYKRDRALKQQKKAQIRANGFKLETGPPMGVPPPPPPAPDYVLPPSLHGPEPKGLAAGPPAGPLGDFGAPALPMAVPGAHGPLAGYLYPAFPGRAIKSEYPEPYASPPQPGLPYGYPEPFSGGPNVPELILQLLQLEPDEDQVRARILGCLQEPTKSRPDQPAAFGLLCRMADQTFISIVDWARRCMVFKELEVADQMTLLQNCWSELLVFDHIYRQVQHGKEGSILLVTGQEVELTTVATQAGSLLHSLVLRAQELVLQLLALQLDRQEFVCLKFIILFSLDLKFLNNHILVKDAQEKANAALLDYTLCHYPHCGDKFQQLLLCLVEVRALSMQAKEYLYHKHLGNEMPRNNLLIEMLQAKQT

[10] = biological target: Nuclear receptor subfamily 5 group A member 2 (Homo sapiens, UniProt O00482); type: functional, cell-based;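 also: HEK293T cells transfected with LRH-1 and a StAR promoter luciferase reporter; potency for inhibitors that lower LRH-1 driven reporter light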
Chain of Nuclear receptor subfamily 5 group A member 2 (O00482 whole entry): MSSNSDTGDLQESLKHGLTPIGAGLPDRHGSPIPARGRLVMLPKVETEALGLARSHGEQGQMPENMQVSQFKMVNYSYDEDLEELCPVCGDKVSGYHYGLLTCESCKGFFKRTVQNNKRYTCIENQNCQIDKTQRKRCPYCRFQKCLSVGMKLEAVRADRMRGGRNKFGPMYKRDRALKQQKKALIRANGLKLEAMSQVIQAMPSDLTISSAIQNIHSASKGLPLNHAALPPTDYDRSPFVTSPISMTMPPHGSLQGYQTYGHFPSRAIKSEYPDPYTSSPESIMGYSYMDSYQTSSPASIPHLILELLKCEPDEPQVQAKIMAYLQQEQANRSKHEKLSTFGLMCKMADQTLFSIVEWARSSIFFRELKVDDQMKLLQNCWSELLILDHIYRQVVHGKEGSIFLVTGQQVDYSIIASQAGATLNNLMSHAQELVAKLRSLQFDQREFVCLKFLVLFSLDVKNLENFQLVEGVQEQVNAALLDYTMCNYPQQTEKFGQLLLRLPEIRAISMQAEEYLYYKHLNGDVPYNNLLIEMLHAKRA

[11] = biological target: Beta-galactosidase (Escherichia coli, UniProt Q8VNN2); assay: detection-enzyme interference by beta-gal modulators – biochemical, E. coli enzyme, set 3, artefact control for CCR6 antagonist project, dose response (AID 504712); type: functional
Chain of Beta-galactosidase (Q8VNN2 whole entry): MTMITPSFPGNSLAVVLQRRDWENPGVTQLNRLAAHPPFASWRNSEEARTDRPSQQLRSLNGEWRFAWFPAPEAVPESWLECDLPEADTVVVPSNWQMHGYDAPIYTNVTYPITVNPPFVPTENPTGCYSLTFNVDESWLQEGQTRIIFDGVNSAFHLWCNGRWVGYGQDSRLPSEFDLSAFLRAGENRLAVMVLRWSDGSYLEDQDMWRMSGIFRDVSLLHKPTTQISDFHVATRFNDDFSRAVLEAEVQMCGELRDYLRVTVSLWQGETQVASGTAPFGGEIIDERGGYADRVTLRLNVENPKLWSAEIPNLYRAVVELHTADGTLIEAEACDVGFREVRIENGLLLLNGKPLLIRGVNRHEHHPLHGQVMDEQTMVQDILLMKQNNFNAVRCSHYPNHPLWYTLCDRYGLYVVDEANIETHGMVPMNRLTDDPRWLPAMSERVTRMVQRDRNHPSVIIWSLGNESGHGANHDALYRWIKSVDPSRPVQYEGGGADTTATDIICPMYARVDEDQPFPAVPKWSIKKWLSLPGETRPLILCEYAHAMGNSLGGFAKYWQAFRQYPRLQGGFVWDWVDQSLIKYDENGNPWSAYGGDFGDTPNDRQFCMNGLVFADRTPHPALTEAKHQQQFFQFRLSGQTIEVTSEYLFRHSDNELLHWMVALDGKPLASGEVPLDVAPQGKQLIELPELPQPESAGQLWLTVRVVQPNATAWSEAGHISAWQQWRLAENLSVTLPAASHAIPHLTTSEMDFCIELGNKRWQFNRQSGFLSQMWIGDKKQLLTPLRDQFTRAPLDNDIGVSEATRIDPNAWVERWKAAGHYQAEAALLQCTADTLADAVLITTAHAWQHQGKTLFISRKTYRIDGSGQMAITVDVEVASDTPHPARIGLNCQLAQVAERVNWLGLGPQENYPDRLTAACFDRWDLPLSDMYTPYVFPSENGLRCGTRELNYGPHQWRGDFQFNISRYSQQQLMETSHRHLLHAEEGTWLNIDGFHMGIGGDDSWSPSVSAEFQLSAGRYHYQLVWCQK

[12] = biological target: T1, Serine/threonine-protein phosphatase (Candida dubliniensis (strain CD36 / CBS 7987 / NCPF 3949 / NRRLY-17841) (Yeast), UniProt B9W6M3); assay: blockers of CaCl2-induced CDRE-lacZ signaling – S. cerevisiae, luminescence, secondary, dose response (AID 2388); type: functional, cell-based;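 also: yeast reporter cells carrying a calcineurin-responsive lacZ construct stimulated with calcium chloride; luminescent beta-galactosidase reporter signal in whole cells rather than isolated phosphatase activity; potency for inhibition where a drop in reporter signal means calcineurin blockade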
T1 sequence (B9W6M3 whole entry): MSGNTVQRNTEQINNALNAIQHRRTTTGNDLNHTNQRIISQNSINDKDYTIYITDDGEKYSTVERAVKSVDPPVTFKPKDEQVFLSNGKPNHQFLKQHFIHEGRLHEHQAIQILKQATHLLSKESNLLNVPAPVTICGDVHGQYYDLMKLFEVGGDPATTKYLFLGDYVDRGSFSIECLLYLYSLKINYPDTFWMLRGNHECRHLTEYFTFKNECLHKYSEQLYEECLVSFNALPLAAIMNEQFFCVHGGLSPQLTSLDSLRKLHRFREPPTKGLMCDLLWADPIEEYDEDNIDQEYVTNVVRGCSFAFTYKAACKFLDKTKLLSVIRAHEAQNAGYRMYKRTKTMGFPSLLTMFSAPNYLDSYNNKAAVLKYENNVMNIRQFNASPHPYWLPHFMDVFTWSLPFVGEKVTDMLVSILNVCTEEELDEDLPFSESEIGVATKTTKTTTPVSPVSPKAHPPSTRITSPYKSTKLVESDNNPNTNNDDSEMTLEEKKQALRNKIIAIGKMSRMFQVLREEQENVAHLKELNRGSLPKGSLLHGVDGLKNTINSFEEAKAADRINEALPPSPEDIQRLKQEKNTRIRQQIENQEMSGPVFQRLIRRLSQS

[13] = biological target: ATP-dependent molecular chaperone HSP82 (Candida albicans (strain WO-1) (Yeast), UniProt C4YTQ8); assay: steroid-induced GRE reporter decrease in yeast – S. cerevisiae, luminescence, Hsp90 inhibitor project, dose response (AID 2400); type: functional, cell-based;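 also: beta-galactosidase luminescence from glucocorticoid response element reporter as proxy for Hsp90 function; inhibitor potency where signal loss means Hsp90 inhibition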
Chain of ATP-dependent molecular chaperone HSP82 (C4YTQ8 whole entry): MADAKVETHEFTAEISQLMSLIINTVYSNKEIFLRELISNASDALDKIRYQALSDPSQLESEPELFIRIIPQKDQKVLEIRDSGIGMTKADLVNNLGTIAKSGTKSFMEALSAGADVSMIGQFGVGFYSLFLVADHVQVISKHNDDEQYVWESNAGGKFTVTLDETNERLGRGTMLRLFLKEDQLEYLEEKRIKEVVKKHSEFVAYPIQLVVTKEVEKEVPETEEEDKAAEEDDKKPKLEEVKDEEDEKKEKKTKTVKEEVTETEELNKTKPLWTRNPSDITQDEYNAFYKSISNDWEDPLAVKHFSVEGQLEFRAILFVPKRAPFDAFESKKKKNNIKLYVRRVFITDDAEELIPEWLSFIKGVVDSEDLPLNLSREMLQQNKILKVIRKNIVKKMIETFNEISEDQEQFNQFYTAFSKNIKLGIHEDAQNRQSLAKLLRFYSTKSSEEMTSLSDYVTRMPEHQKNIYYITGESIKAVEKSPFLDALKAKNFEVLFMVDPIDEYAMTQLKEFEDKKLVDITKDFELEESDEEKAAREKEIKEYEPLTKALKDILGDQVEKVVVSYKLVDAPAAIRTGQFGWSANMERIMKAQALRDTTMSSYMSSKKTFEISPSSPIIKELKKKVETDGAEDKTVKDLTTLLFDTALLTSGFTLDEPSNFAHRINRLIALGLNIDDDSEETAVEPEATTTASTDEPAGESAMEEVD

[14] = NIH-3T3 fibroblast cytotoxicity, dose response, cytotoxicity control, cell-based, fluorescence, Alamar Blue, secondary assay (AID 2327); type: functional;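 also: NIH-3T3 mouse fibroblasts cultured with fluconazole at 8 µg/mL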
[15] = fluconazole-exposed Candida albicans growth modulators – fluorescence, retest, confirmation (AID 2467); type: functional, cell-based

Chain of Adenosylmethionine-8-amino-7-oxononanoate aminotransferase (P9WQ81 whole entry): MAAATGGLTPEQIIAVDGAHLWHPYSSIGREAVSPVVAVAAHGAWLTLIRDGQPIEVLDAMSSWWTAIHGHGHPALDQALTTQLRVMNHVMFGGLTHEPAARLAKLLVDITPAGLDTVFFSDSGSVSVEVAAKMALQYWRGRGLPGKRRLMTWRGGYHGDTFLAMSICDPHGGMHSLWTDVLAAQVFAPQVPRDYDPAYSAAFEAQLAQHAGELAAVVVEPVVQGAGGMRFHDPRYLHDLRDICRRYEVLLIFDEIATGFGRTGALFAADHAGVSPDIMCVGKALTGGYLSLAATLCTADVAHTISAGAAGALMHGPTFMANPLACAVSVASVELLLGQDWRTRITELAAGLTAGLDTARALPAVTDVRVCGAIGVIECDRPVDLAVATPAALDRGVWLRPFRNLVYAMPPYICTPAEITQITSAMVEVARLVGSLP

With O=C(Nc1ccc2c(c1)[C@H]1C[C@@H](CC(=O)N3CCc4ccccc4C3)O[C@@H](CO)[C@H]1O2)c1cccnc1 the AC50 [1] was 10.5 µM (active).

With CCOc1ccc2nc(NC(=O)C3CCCN(S(=O)(=O)c4cccc5nonc45)C3)sc2c1 (configuration not stated) the EC50 [2] was > 60 µM (not active), the IC50 [3] was > 64.6 µM (inactive) and the IC50 [4] was > 64.6 µM (inactive). For the same compound, the EC50 [5] was 2.11 µM (active).

With O=C(O)COc1ccc(/C=C/c2nc3ccc([N+](=O)[O-])cc3s2)cc1 the AC50 [6] was 0.4 µM (active), the EC50 [2] was > 60 µM (not active) and the AC50 [7] was 0.348 µM (active). The EC50 [5] was > 60 µM (not active).

With O=C1c2cccc([N+](=O)[O-])c2C(=O)N1c1ccccc1 the IC50 [3] was > 64.6 µM (inactive) and the IC50 [4] was > 64.6 µM (inactive).

With Cc1ccc2cccc(OCC(=O)NCCC3=CCCCC3)c2n1 the IC50 [8] was 35.8 µM (inactive), the IC50 [9] was 2.83 µM (active) and the IC50 [10] was 4.06 µM (active).

With CC(=O)NC(c1ccc(C)cc1)c1cc([N+](=O)[O-])c2cccnc2c1O (configuration not stated) the EC50 [2] was < 6 µM (inconclusive), the IC50 [11] was > 66.6 µM (inactive) and the EC50 [12] was > 180 µM (inactive). For the same compound, the EC50 [13] was 40.3 µM (active), the EC50 [14] was 47.2 µM (active) and the EC50 [15] was 0.334 µM (active). For the same compound, the EC50 [5] was 1.16 µM (active).

In the case of c1cncc(CNc2ccnc(-c3ccc4[nH]ncc4c3)n2)c1, the AC50 [6] was 0.385 µM (active).

Source: ChEMBL document CHEMBL1201862, “PubChem BioAssay data set” (2004)
